Reference: ChEMBL document CHEMBL1909046, “DrugMatrix in vitro pharmacology data”

What was measured:
Cytochrome P450 2E1 = Cytochrome P450 2E1 (Homo sapiens, UniProt P05181); conditions: bti-tn-5b1-4; further: in other assays of this panel Not Active means under 50% inhibition at 10 µM
[1] = biological target: T1, 3-hydroxy-3-methylglutaryl-coenzyme A reductase (Homo sapiens, UniProt P04035); set-up: species or system Escherichia coli;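 further: enzyme inhibition assay of HMG-CoA reductase using radiolabeled [14C]HMG-CoA as substrate; in other assays of this panel Not Active means under 50% inhibition at 10 µM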
T1 sequence (P04035 whole entry): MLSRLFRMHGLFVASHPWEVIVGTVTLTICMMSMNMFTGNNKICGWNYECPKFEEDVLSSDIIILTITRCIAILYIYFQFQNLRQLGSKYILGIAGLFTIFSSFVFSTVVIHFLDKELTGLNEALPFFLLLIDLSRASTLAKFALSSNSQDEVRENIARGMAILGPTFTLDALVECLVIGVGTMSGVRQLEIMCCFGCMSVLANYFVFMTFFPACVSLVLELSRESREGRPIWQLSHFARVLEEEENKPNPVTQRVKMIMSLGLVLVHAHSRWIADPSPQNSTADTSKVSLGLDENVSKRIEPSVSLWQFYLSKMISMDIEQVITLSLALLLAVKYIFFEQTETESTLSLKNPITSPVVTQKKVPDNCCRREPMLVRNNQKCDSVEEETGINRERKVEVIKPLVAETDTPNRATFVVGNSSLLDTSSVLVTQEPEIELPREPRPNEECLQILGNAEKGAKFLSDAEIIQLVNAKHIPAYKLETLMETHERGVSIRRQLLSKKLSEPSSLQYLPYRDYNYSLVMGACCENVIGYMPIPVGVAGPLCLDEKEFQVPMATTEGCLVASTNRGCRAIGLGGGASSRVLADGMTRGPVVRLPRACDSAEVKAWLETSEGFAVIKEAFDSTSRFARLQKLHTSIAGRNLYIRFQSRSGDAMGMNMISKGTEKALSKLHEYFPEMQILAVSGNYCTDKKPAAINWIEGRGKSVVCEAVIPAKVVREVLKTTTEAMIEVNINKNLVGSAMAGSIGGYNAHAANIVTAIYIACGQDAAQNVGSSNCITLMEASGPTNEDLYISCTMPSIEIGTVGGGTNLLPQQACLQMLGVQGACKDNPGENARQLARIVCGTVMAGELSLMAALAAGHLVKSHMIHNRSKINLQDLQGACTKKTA

[2] = DRUGMATRIX: Leukotriene, BLT (LTB4) radioligand binding (ligand: [3H]LTB4); format: cell membranes, Membrane; conditions: u-937; Not Active = under 50% inhibition at 10 µM
[3] = biological target: Aldo-keto reductase family 1 member B1 (Rattus norvegicus, UniProt P07943); experiment: biochemical; format: tissue-based, Lens of camera-type eye;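 further: inhibition of aldose reductase enzyme activity, measured with DL-glyceraldehyde as the substrate; in other assays of this panel Not Active means under 50% inhibition at 10 µM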
Cytochrome P450 2C9 = Cytochrome P450 2C9 (Homo sapiens, UniProt P11712); conditions: bti-tn-5b1-4; further: in other assays of this panel Not Active means under 50% inhibition at 10 µM
Chain of Cytochrome P450 2C9 (P11712 whole entry): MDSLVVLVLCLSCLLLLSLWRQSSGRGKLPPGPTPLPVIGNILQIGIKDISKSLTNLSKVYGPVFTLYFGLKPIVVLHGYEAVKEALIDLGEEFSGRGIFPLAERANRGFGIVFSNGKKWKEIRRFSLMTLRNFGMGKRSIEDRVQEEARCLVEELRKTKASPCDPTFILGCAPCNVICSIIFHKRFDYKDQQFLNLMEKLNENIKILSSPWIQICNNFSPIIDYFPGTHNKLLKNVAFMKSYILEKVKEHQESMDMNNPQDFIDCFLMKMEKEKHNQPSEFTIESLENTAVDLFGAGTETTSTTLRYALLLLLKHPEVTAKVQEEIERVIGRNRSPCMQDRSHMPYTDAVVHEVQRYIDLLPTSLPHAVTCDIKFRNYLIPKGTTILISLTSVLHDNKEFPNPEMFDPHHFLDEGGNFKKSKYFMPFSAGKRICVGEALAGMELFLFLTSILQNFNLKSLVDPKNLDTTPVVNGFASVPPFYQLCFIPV

[4] = biological target: Tyrosine-protein kinase Lck (Homo sapiens, UniProt P06239); experiment: DRUGMATRIX: Protein Tyrosine Kinase, LCK enzyme inhibition (substrate: Poly(Glu:Tyr)); format: cell-based, Insect cells; conditions: insect cells, Not Active = under 50% inhibition at 10 µM
Chain of Tyrosine-protein kinase Lck (P06239 whole entry): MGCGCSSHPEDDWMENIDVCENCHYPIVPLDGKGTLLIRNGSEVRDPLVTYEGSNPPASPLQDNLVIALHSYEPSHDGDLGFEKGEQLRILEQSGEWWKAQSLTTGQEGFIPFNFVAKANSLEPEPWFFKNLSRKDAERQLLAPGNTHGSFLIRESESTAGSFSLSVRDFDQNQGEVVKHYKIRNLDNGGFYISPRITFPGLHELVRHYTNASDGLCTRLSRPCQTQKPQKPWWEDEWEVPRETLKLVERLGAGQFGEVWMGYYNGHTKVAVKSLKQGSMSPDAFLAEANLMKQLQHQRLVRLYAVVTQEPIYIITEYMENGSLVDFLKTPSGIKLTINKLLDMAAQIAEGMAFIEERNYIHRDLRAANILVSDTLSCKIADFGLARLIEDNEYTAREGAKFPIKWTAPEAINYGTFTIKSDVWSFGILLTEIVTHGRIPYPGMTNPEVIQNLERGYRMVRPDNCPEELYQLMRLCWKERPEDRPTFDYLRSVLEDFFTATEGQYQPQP

Glucocorticoid receptor = biological target: T2, Glucocorticoid receptor (Homo sapiens, UniProt P04150); conditions: hela s3; further: in other assays of this panel Not Active means under 50% inhibition at 10 µM
T2 sequence (P04150 whole entry): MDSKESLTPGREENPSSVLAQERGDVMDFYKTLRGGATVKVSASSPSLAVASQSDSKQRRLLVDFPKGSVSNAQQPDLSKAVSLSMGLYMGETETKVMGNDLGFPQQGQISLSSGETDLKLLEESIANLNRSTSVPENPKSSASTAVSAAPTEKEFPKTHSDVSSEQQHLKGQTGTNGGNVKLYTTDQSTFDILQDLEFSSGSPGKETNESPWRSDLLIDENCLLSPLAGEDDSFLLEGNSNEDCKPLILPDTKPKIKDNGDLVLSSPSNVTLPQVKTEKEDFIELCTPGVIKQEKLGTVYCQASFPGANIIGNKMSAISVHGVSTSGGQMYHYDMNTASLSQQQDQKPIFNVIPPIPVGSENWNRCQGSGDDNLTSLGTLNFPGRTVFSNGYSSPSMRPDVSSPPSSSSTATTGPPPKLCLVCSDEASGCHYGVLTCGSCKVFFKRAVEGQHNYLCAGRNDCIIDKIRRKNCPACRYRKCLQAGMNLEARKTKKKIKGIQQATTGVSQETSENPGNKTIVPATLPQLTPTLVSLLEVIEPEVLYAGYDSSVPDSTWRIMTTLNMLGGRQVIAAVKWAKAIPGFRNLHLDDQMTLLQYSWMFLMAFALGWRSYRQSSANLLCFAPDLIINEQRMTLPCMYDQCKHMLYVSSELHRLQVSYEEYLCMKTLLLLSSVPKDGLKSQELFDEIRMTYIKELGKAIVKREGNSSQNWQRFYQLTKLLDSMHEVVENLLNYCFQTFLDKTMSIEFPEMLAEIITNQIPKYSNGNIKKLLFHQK

Chain of Cytochrome P450 2E1 (P05181 whole entry): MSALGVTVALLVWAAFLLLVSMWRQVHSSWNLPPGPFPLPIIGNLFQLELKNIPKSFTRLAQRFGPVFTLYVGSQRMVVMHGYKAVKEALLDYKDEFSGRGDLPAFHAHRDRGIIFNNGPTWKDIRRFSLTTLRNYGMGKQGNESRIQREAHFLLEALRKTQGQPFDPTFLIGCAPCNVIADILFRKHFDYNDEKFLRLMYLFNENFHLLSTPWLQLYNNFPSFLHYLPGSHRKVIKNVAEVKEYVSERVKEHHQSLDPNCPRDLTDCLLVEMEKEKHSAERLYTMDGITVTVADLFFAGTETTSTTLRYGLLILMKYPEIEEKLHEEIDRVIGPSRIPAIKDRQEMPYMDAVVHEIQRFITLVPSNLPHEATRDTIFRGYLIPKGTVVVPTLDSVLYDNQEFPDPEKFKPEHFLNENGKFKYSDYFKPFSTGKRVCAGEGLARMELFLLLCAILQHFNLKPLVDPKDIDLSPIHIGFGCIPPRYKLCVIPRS

Row | Compound | IC50 (Cytochrome P450 2E1) | Ki (Cytochrome P450 2E1) | IC50 [1] | IC50 [2] | Ki [2] | IC50 [3] | IC50 (Cytochrome P450 2C9) | Ki (Cytochrome P450 2C9) | IC50 [4] | IC50 (Glucocorticoid receptor) | Ki [1] | Ki [3] | Ki [4] | Ki (Glucocorticoid receptor) | IC50 ([4]; read-out: IC50) [nM]
1 | Nc1nc2c(ncn2COCCO)c(=O)[nH]1 [ACYCLOVIR] | Not Active | Not Active | Not Active | Not Active | Not Active | Not Active | Not Active | Not Active | Not Active | Not Active |  |  |  |  | 
2 | LEAD (II) ACETATE | Not Active | Not Active | Not Active | Not Active | Not Active | Not Active | Not Active | Not Active | Not Active | Not Active | Not Active | Not Active | Not Active | Not Active | 
3 | O=c1[nH]c(=O)n([C@H]2C[C@H](O)[C@@H](CO)O2)cc1I [IDOXURIDINE] | Not Active | Not Active | Not Active | Not Active | Not Active | Not Active | Not Active | Not Active | Not Active | Not Active |  |  |  |  | 
4 | CC1=C2C(=CO[C@H](C)[C@H]2C)C(O)=C(C(=O)O)C1=O [CITRININ] | Not Active | Not Active | Not Active | Not Active | Not Active | Not Active | Not Active | Not Active | Not Active | Not Active |  |  |  |  | 
5 | Cc1c(C)c2c(c(C)c1O)CC[C@@](C)(CCC[C@H](C)CCC[C@H](C)CCCC(C)C)O2 [ALPHA-TOCOPHEROL] | Not Active | Not Active | Not Active | Not Active | Not Active | Not Active | Not Active | Not Active | Not Active | Not Active |  |  |  |  | 
6 | CC[C@@]1(O)C[C@H](O[C@H]2C[C@H](N(C)C)[C@H](O[C@H]3C[C@H](O)[C@H](O[C@H]4CCC(=O)[C@H](C)O4)[C@H](C)O3)[C@H](C)O2)c2c(cc3c(c2O)C(=O)c2c(O)cccc2C3=O)[C@H]1C(=O)OC [ACLARUBICIN] | Not Active | Not Active | Not Active | Not Active | Not Active | Not Active | Not Active | Not Active | Not Active | Not Active |  |  |  |  | 
7 | CC(C)CN(C[C@@H](O)[C@H](Cc1ccccc1)NC(=O)O[C@H]1CCOC1)S(=O)(=O)c1ccc(N)cc1 | Not Active | Not Active | Not Active | Not Active | Not Active | Not Active | Not Active | Not Active | Not Active | Not Active |  |  |  |  | 
8 | Nc1nc(N)nc(-c2cc(Cl)ccc2Cl)n1.O=C(O)/C=C\C(=O)O [IRSOGLADINE MALEATE] | Not Active | Not Active | Not Active | Not Active | Not Active | Not Active | Not Active | Not Active | Not Active | Not Active |  |  |  |  | 
9 | Nc1ncn([C@@H]2O[C@H](CO)[C@@H](O)[C@H]2O)c(=O)n1 [AZACITIDINE] | Not Active | Not Active | Not Active | Not Active | Not Active | Not Active | Not Active | Not Active | Not Active | Not Active |  |  |  |  | 
10 | LIPOPOLYSACCHARIDE E. COLI O55:B5 | Not Active | Not Active | Not Active | Not Active | Not Active | Not Active | Not Active | Not Active |  | Not Active | Not Active | Not Active |  | Not Active | 294
11 | CC(C)[C@H]1C(=O)N2CCC[C@H]2[C@]2(O)O[C@](NC(=O)[C@@H]3C=C4c5cccc6[nH]cc(c56)C[C@H]4N(C)C3)(C(C)C)C(=O)N12 [ERGOCORNINE] | Not Active | Not Active | Not Active | Not Active | Not Active | Not Active | Not Active | Not Active | Not Active | Not Active |  |  |  |  | 
12 | O=C(CCCN1CC=C(n2c(=O)[nH]c3ccccc32)CC1)c1ccc(F)cc1 [DROPERIDOL] | Not Active | Not Active | Not Active | Not Active | Not Active | Not Active | Not Active | Not Active | Not Active | Not Active |  |  |  |  | 
13 | Clc1cccc(Cl)c1NC1=NCCN1 [CLONIDINE] | Not Active | Not Active | Not Active | Not Active | Not Active | Not Active | Not Active | Not Active | Not Active | Not Active |  |  |  |  | 
14 | Cc1onc(O)c1CC(N)C(=O)O (racemic) [(R,S)-AMPA] | Not Active | Not Active | Not Active | Not Active | Not Active | Not Active | Not Active | Not Active | Not Active | Not Active |  |  |  |  | 
15 | CCOC(=O)C1=C(COCCN)NC(C)=C(C(=O)OC)C1c1ccccc1Cl (configuration not stated) [AMLODIPINE] | Not Active | Not Active | Not Active | Not Active | Not Active | Not Active | Not Active | Not Active | Not Active | Not Active |  |  |  |  | 
